tested on: KRAS G12V dependent lung adenocarcinoma cell line, NCI-H441; experiment: Cellular pERK (Thr202/Tyr204) FRET/HTRF assay; assay type: cell-based; conditions: Homo sapiens, NCI-H441, cellular pERK (Thr202/Tyr204) HTRF, NCI-H441 cells
In short: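 NCI-H441 cells (KRAS G12V) were seeded and grown overnight at 37 °C, 5% CO2, then treated with compound in DMSO for 1 hr. Lysates were probed with a Eu3+-cryptate/d2 antibody sandwich against pERK1/2 Thr202/Tyr204 and read by HTRF at 665 nm; IC50 from curve fitting.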

Row | SMILES | IC50
1 | [2H]C([2H])(Oc1nc(N2CCOC[C@H]3[C@H](F)[C@H]32)c2cnc(-c3cc(N)cc4ccc(F)c(C#C)c34)c(F)c2n1)[C@@]12CCCN1C[C@@H](C#N)C2 [Example 286, (2S,7aS)-7a-(((7-(3-amino-8-ethynyl-7-fluoronaphthalen-1-yl)-8-fluoro-4-((1S,7S,8S)-8-fluoro-5-oxa-2-azabicyclo[5.1.0]octan-2-yl)pyrido[4,3-d]pyrimidin-2-yl)oxy)methyl-d2)hexahydro-1H-pyrrolizine-2-carbonitrile] | < 50 nM
2 | [2H]C([2H])(F)Oc1c(F)ccc2cccc(-c3ncc4c(N5CCCC[C@H]6[C@H](F)[C@H]65)nc(OC[C@]56C/C(=C/F)CN5CCC65CC5)nc4c3F)c12 [Example 408, (R,Z)-7a′-(((8-fluoro-7-(7-fluoro-8-(fluoromethoxy-d2)naphthalen-1-yl)-4-((1S,7R,8S)-8-fluoro-2-azabicyclo[5.1.0]octan-2-yl)pyrido[4,3-d]pyrimidin-2-yl)oxy)methyl)-6′-(fluoromethylene)hexahydrospiro [cyclopropane-1,1′-pyrrolizine]] | < 50 nM
3 | [2H]C([2H])(Oc1nc(N2CCOC[C@H]3[C@H](F)[C@H]32)c2cnc(-c3cc(N)cc(C)c3C(F)(F)F)c(F)c2n1)[C@@]12CCCN1C[C@H](F)C2 [Example 168, 3-(8-fluoro-4-((1S,7S,8S)-8-fluoro-5-oxa-2-azabicyclo[5.1.0]octan-2-yl)-2-(((2R,7aS)-2-fluorotetrahydro-1H-pyrrolizin-7a(5H)-yl)methoxy-d2)pyrido[4,3-d]pyrimidin-7-yl)-5-methyl-4-(trifluoromethyl)aniline] | 500 to 10000 nM
4 | C=C1CN2CCC[C@@]2(COc2nc(N3CCOC[C@H]4[C@H](F)[C@H]43)c3cc(C(F)(F)F)c(-c4ccc(F)c5sc(N)c(C#N)c45)c(F)c3n2)C1 (atropisomer, axis not shown) [Example 432, 2-amino-7-fluoro-4-((S)-8-fluoro-4-((1S,7S,8S)-8-fluoro-5-oxa-2-azabicyclo[5.1.0]octan-2-yl)-2-(((S)-2-methylenetetrahydro-1H-pyrrolizin-7a(5H)-yl)methoxy)-6-(trifluoromethyl)quinazolin-7-yl)benzo[b]thiophene-3-carbonitrile] | < 50 nM
5 | [2H]C([2H])(Oc1nc(N2CCOC[C@H]3[C@H](F)[C@H]32)c2cc(C#N)c(-c3cc(N)cc4ccc(F)c(C#C)c34)c(C)c2n1)[C@@]12CCCN1C[C@H](F)C2 [Example 422, 7-(3-amino-8-ethynyl-7-fluoronaphthalen-1-yl)-4-((1S,7S,8S)-8-fluoro-5-oxa-2-azabicyclo[5.1.0]octan-2-yl)-2-(((2R,7aS)-2-fluorotetrahydro-1H-pyrrolizin-7a(5H)-yl)methoxy-d2)-8-methylquinazoline-6-carbonitrile] | < 50 nM
6 | [2H]C([2H])(Oc1nc(N2CCOC[C@H]3[C@H](Cl)[C@H]32)c2cnc(-c3cc(N)cc4cccc(C#C)c34)c(F)c2n1)[C@@]12CCCN1[C@H](C)[C@H](F)C2 [Example 348, 4-(4-((1S,7S,8S)-8-chloro-5-oxa-2-azabicyclo[5.1.0]octan-2-yl)-8-fluoro-2-(((2R,3R,7aS)-2-fluoro-3-methyltetrahydro-1H-pyrrolizin-7a(5H)-yl)methoxy-d2)pyrido[4,3-d]pyrimidin-7-yl)-5-ethynylnaphthalen-2-amine] | < 50 nM
7 | [2H]C([2H])(Oc1nc(N2CCC(=O)C[C@@H]3[C@@H](F)[C@@H]32)c2cnc(-c3cc(N)cc4cc(F)c(F)c(C#C)c34)c(F)c2n1)[C@@]12CCCN1C[C@H](F)C2 [Example 196, (1R,7S,8R)-2-(7-(3-amino-8-ethynyl-6,7-difluoronaphthalen-1-yl)-8-fluoro-2-(((2R,7aS)-2-fluorotetrahydro-1H-pyrrolizin-7a(5H)-yl)methoxy-d2)pyrido[4,3-d]pyrimidin-4-yl)-8-fluoro-2-azabicyclo[5.1.0]octan-5-one] | < 50 nM
8 | [2H]C([2H])(Oc1nc(N2CCOC[C@H]3[C@H](F)[C@H]32)c2c(OC)nc(-c3cc(O)cc4ccc(F)c(C#C)c34)c(F)c2n1)[C@@]12CCCN1C[C@H](F)C2 [Example 241, 5-ethynyl-6-fluoro-4-(8-fluoro-4-((1S,7S,8S)-8-fluoro-5-oxa-2-azabicyclo[5.1.0]octan-2-yl)-2-(((2R,7aS)-2-fluorotetrahydro-1H-pyrrolizin-7a(5H)-yl)methoxy-d2)-5-methoxypyrido[4,3-d]pyrimidin-7-yl)naphthalen-2-ol] | < 50 nM
9 | [2H]C([2H])(Oc1nc(N2CCC=C[C@H]3[C@H](F)[C@H]32)c2cnc(-c3cc(N)cc4ccc(F)c(C#C)c34)c(F)c2n1)[C@@]12CCCN1C[C@H](F)C2 [Example 150, 5-Ethynyl-6-fluoro-4-(8-fluoro-4-((1S,7R,8S)-8-fluoro-2-azabicyclo[5.1.0]oct-5-en-2-yl)-2-(((2R,7aS)-2-fluorotetrahydro-1H-pyrrolizin-7a(5H)-yl)methoxy-d2)pyrido[4,3-d]pyrimidin-7-yl)naphthalen-2-amine] | < 50 nM
10 | C#Cc1c(Cl)ccc2cc(O)cc(-c3ncc4c(N5CCOC[C@H]6[C@H](F)[C@H]65)nc(OC[C@@H]5CCCN5C)nc4c3F)c12 [Example 294, 6-chloro-5-ethynyl-4-(8-fluoro-4-((1S,7S,8S)-8-fluoro-5-oxa-2-azabicyclo[5.1.0]octan-2-yl)-2-(((S)-1-methylpyrrolidin-2-yl)methoxy)pyrido[4,3-d]pyrimidin-7-yl)naphthalen-2-ol] | < 50 nM
11 | C#Cc1c(F)ccc2cc(N)cc(-c3ncc4c(N5CCOC[C@H]6[C@H](F)[C@H]65)nc(OC[C@]56C[C@]7(CN5CCC65CC5)CC7(F)F)nc4c3F)c12 (single isomer, unassigned) [Example 219] | < 50 nM
12 | [2H]C([2H])(Oc1nc(N2CCCO[C@H]3[C@H](F)[C@H]32)c2cnc(-c3cc(N)cc4c(F)c(F)c(F)c(C#C)c34)c(F)c2n1)[C@@]12CCCN1C[C@H](F)C2 [Example 115, 5-ethynyl-6,7,8-trifluoro-4-(8-fluoro-4-((1R,7S,8R)-8-fluoro-2-oxa-6-azabicyclo[5.1.0]octan-6-yl)-2-(((2R,7aS)-2-fluorotetrahydro-1H-pyrrolizin-7a(5H)-yl)methoxy-d2)pyrido[4,3-d]pyrimidin-7-yl)naphthalen-2-amine] | < 50 nM

same assay, conditions: Homo sapiens, NCI-H441, cellular pERK HTRF, NCI-H441 (KRAS G12V) cells

Row | SMILES | IC50
13 | C#Cc1c(F)ccc2cc(N)cc(-c3ncc4c(N5CCOCC6C(Cl)C65)nc(OC[C@@]56CCCN5CC(=C)C6)nc4c3C)c12 (stereo partly drawn) [Example 443, 4-(4-(8-chloro-5-oxa-2-azabicyclo[5.1.0]octan-2-yl)-8-methyl-2-(((S)-2-methylenetetrahydro-1H-pyrrolizin-7a(5H)-yl)methoxy)pyrido[4,3-d]pyrimidin-7-yl)-5-ethynyl-6-fluoronaphthalen-2-amine] | < 50 nM
14 | [2H]C([2H])(Oc1nc(N2CCOC[C@H]3[C@H](F)[C@H]32)c2cnc(-c3cc(O)cc4ccc(F)c(C#C)c34)c(C)c2n1)[C@@]12CCCN1CC(=C)C2 [Example 446, 5-Ethynyl-6-fluoro-4-(4-((1S,7S,8S)-8-fluoro-5-oxa-2-azabicyclo[5.1.0]octan-2-yl)-8-methyl-2-(((S)-2-methylenetetrahydro-1H-pyrrolizin-7a(5H)-yl)methoxy-d2)pyrido[4,3-d]pyrimidin-7-yl)naphthalen-2-ol] | < 50 nM

same assay, conditions: Homo sapiens, NCI-H441, pERK HTRF, NCI-H441 cells (KRAS G12V)

Row | SMILES | IC50
15 | [2H]C([2H])([2H])Oc1c(C#N)ccc2cc(N)cc(-c3ncc4c(N5CCOC[C@H]6[C@H](F)[C@H]65)nc(OC([2H])([2H])[C@@]56CCCN5C[C@H](F)C6)nc4c3F)c12 [Example 81, 6-Amino-8-(8-fluoro-4-((1S,7S,8S)-8-fluoro-5-oxa-2-azabicyclo[5.1.0]octan-2-yl)-2-(((2R,7aS)-2-fluorotetrahydro-1H-pyrrolizin-7a(5H)-yl)methoxy-d2)pyrido[4,3-d]pyrimidin-7-yl)-1-(methoxy-d3)-2-naphthonitrile] | < 50 nM
16 | [2H]C([2H])([2H])Oc1c(F)ccc2cccc(-c3ncc4c(N5CCCO[C@H]6[C@H](F)[C@H]65)nc(OC([2H])([2H])[C@@]56CCCN5C[C@H](F)C6)nc4c3F)c12 [Example 86, (1R,7S,8R)-8-Fluoro-6-(8-fluoro-7-(7-fluoro-8-(methoxy-d3)naphthalen-1-yl)-2-(((2R,7aS)-2-fluorotetrahydro-1H-pyrrolizin-7a(5H)-yl)methoxy-d2)pyrido[4,3-d]pyrimidin-4-yl)-2-oxa-6-azabicyclo[5.1.0]octane] | < 50 nM
17 | [2H]C([2H])([2H])Oc1c(F)ccc2cccc(-c3ncc4c(N5CCOC[C@H]6[C@H](F)[C@H]65)nc(OC([2H])([2H])[C@@]56CCCN5C[C@H](F)C6)nc4c3F)c12 [Example 43, (1S,7S,8S)-8-Fluoro-2-(8-fluoro-7-(7-fluoro-8-(methoxy-d3)naphthalen-1-yl)-2-(((2R,7aS)-2-fluorotetrahydro-1H-pyrrolizin-7a(5H)-yl)methoxy-d2)pyrido[4,3-d]pyrimidin-4-yl)-5-oxa-2-azabicyclo[5.1.0]octane] | < 50 nM

same assay, conditions: cellular pERK (Thr202/Tyr204) HTRF, NCI-H441 cells

Row | SMILES | IC50
18 | [2H]C([2H])(Oc1nc(N2CCOC[C@H]3[C@H](F)[C@H]32)c2cc(F)c(-c3ccc(F)c4sc(N)c(C#N)c34)c(F)c2n1)[C@@]12CCCN1C[C@H](F)C2 (atropisomer, axis not shown; (aS)) [Example 356, 2-amino-4-((R)-6,8-difluoro-4-((1S,7S,8S)-8-fluoro-5-oxa-2-azabicyclo[5.1.0]octan-2-yl)-2-(((2R,7aS)-2-fluorotetrahydro-1H-pyrrolizin-7a(5H)-yl)methoxy-d2)quinazolin-7-yl)-7-fluorobenzo[b]thiophene-3-carbonitrile] | 500 to 10000 nM

From patent publication US20250282799A1, “SUBSTITUTED PYRIDO[4,3-d]PYRIMIDINES AS KRAS MODULATORS” (Alterome Therapeutics, Inc., priority 2023, published 2025)
